Source: patent publication KR20100075412A, “방사성 세포 표지자” (경북대학교 산학협력단, priority 2008, dated 2010)
Read-outs that look alike come from different tables or passages of the source.

Columns and labels:
[1] = system: cells [세포]; details: cited from earlier work
[2] = system: SCC-7 cells; assay: Cell labelling with [131I]OIB / [131I]HIB, SCC-7 cells; format: cell-based; details: SCC-7, in PBS, centrifuged and washed several times
[3] = system: 4T1 cells; assay: Cell labelling with [131I]OIB / [131I]HIB, 4T1 cells; format: cell-based; details: 4T1, in PBS, centrifuged and washed several times
[4] = system: HeLa cells; assay: Cell labelling with [131I]OIB / [131I]HIB, HeLa cells; format: cell-based; details: in PBS, centrifuged and washed several times
[5] = system: H9C2 cells; assay: Cell labelling with [131I]OIB / [131I]HIB, H9C2 cells; format: cell-based; details: H9C2, in PBS, centrifuged and washed several times
[6] = system: L6 cells; assay: Cell labelling with [131I]OIB / [131I]HIB, L6 cells; format: cell-based, rat; details: for cell labelling yield: L6, in PBS, centrifuged and washed several times
[7] = system: cells with introduced L6-NIS/GFP reporter [L6-NIS/GFP 리포터가 이입된 세포]; assay: Gamma camera and GFP imaging of labelled L6-NIS/GFP cells injected subcutaneously in nude mice; format: in vivo, nude mouse
[8] = system: rat cardiomyocytes L6 [랫트(rat) 심근세포 L6]; assay: Gamma camera imaging of labelled L6 cells transplanted into rat myocardium; format: in vivo; details: L6 labelled for 2 h, transplanted directly into rat myocardium
[9] = MicroPET imaging after tail vein injection of [124I]HIB; format: in vivo; details: mouse
[10] = system: labelled cells [표지한 세포]; assay: MicroPET imaging after tail vein injection of [124I]HIB-labelled cells; format: in vivo; details: mouse, imaged for 2 h after injection, for 2 h at 18 h, and up to 66 h (about 3 days)

Question: What does the source list for CNC(=S)NN=CC(C)=NNC(=S)NC.[64Cu] [[64Cu]PTSM, [64Cu]pyruvaldehyde-bis-(n4-methyl-thiosemicarbazone)]?
Answer: release of label from cells ([1]; after incubation with cells): 수 시간 후에 세포에서 떨어져 나와; duration of cell labelling ([1]; compared with other F-18/Cu-64 labelling): 좀 더 장기간 세포 표지가 가능하였다

Question: For OC[C@H]1OC(O)[C@H]([18F])[C@@H](O)[C@@H]1O (stereo partly drawn) [[18F]FDG, 2-[18F]fluoro-2-deoxy-D-glucose], which “release of label from cells” value [1] is on record?
Answer: 수 시간 후에 세포에서 떨어져 나와

Question: With CCCCCCCCCCCCCCCCOC(=O)c1ccc([131I])cc1 [[131I]HIB] as the molecule, how does the cell labelling yield [2] read?
Answer: ≥ 20%

Question: And the cell labelling yield [3]?
Answer: ≥ 20%

Question: What about the cell labelling yield [4] of the same molecule?
Answer: ≥ 20%

Question: What about the cell labelling yield [5] of the same molecule?
Answer: ≥ 20%

Question: And the cell labelling yield [6]?
Answer: ≥ 20%

Question: With O=C(ON1C(=O)CCC1=O)c1ccc([18F])cc1 [[18F]FSB, N-succimidyl-4-[18F]fluorobenzoate] as the molecule, how does the “loss of label from cells” value ([1]; according to previous results) read?
Answer: 알킬레이트된 부분이 신진 대사로 방출되면서 세포에서 표지자가 빠져나가는 것으로 여겨진다

Question: Which results are given for CCCCCCCC/C=C\CCCCCCCCOC(=O)c1ccc([131I])cc1 [[131I]OIB]?
Answer: cell labelling yield [2]: ≥ 20%; cell labelling yield [3]: ≥ 20%; time up to which GFP imaging was measurable ([7]; 1x10^7 [131I]OIB-labelled cells s.c. in each thigh and shoulder of nude mouse): 14 days; time up to which labelled cells were visible by gamma camera ([7]; 1x10^7 cells s.c. in each thigh and shoulder of nude mouse, gamma camera day 1 to 14): 14 days; cell labelling yield [4]: ≥ 20%; cell labelling yield [5]: ≥ 20%; period over which transplanted labelled cells were imaged by gamma camera [8]: 2 weeks; cell labelling yield [6]: ≥ 20%; cell labelling efficiency ([6]; [131I]OIB 136 μCi, 4x10^5 L6 cells in serum-free medium, room temperature, 30 min, washed twice with PBS): 26%

Question: Which “accumulation in thyroid and bladder (microPET)” value [9] does the source give for CCCCCCCCCCCCCCCCOC(=O)c1ccc([124I])cc1 [[124I]HIB] here?
Answer: 갑상선과 방광 부위에 [124I]HIB가 축적되는 것을 확인

Question: What about the “accumulation of activity in liver (microPET)” value [9] of the same molecule?
Answer: 간 위치에 활성도가 축적

Question: What about the excretion route ([9]; inferred from liver activity) of the same molecule?
Answer: 간을 통하여 배출되는 것으로 여겨진다

Question: What about the “time up to which labelled cells were seen accumulated in lung (microPET)” value [10] of the same molecule?
Answer: 66 h
